In data set [1] the test system is transformed human mammary epithelial cells (HMEC). Nature of the data set: Cell proliferation, HMEC. It is filed as cell-based. The protocol: There was no effect seen on the cell proliferation in transformed human mammary epithelial cells (HMEC, data not shown).
MTT assay: This assay is done to measure cell proliferation and viability. Yellow MTT (3-(4,5-Dimethylthiazol-2-yl)-2,5-diphenyltetrazolium bromide, a tetrazole) is reduced to purple crystals, formazan in the mitochondria of living cells. A solubilization solution is added to dissolve the insoluble purple formazan product into a colored solution. The absorbance of this colored solution can be measured by a spectrophotometer. T47 D cells (20,000) were grown in 96-well plate and dosed with 10, 100, 200, 500 nM of PQ1 compound in 100 μl of complete media for 24 hours. MTT (20 μl) was added to the cells and purple formazan crystals were observed after 90 minutes. A solubilization solution (0.35 N HCl) was added to dissolve the formazan and the absorbance was measured at 595 nm wavelength with a background wavelength 690 nm by a spectrophotometer.

The test system of data set [2] is T47D cells. Description: Electron microscopy of PQ1-treated cells. It is filed as cell-based, human. To be noted: PQ1 treatment.
The subject of another data set is HIF1α. Nature of the data set: CoCl2 chemical hypoxia in R28 cells, HIF1α stabilization in nuclear extracts. To be noted: PQ1 alone, up to 24 h. It is filed as cell-based, rat. The protocol: (A) About 70% confluent retinal R28 cells were treated with 100, 200 and 500 μM CoCl2 for 24 h with or without the pre-treatment of PQ1 (10 μM, 40 min) in a cell culture chamber (5% CO2, room air, 37° C.). Caspase-3 activation was determined by Western blotting in whole cell homogenates (WCH). (B) HIF1α stabilization was measured in the nuclear extracts (NE) after treatment with 500 μM CoCl2 at different time intervals with or without the pretreatment of PQ1. […] Levels of Cx43 and phosphoCx43-Ser368 are measured in WCH. β-Actin is used as a loading control.
Approximately 70% confluent retinal R28 cells were pre-incubated with PQ1 (10 μM, 40 min), followed by CoCl2 treatments at 100, 200 and 500 μM for different time periods in a cell culture chamber (5% CO2, room air, 37° C.). Hypoxia induction was confirmed by testing the hypoxia-inducible factor 1-α (HIF1α) protein expression levels in nuclear extracts by Western blotting.
Nuclear extracts. […] The eluted nuclear proteins in the supernatant were collected and HIF1a protein levels were measured by Western blotting. […]

For a further data set, the system named is SW620 colon cancer cells. Nature of the data set: Colony growth of SW620 colon cancer cells. It is filed as cell-based. The protocol:
However, PQ3 has an opposite effect on mammary cancer cell lines. […] A summary of PQ-mediated GJIC activity and colony growth in breast and colon cancer cells is presented in Tables 1, 2, and 3, as well as FIGS. 10-13. In FIG. 10, SW620 cells were dosed for 24 hours with PQ1 at 100, 200, 300, and 500 nM. The gap junction activity was measured as a percent of control, as previously described. It was seen that all concentrations on PQ1 increased the gap junction activity in SW620 colon cancer cells as compared to the control. In FIG. 11, the effect of PQ1 on the expression of PKCγ was studied at concentrations of 100, 200, 300 and 500 nM PQ1 for 24 hours. It is seen in FIG. 11 that PQ1 has no effect on the expression of PKCγ at the levels tested. In FIGS. 12 and 13, the effect of PQ1 on the colony growth of SW620 colon cancer cells was measured with 1-100 nM PQ1 (FIG. 12) and 10 uM PQ1 (FIG. 13).
Colony Growth Assay: T47D human breast cancer cells were treated with PQ1. Base agar plates were prepared containing 0.8% agar and 0.4% agar in Ham's F12. Cells (5×10^4 cells/33 mm2 well) were suspended in 100 μl of Ham's F12 with 0.4% agar and plated. These plates were maintained at 37° C. for 7 days and examined for the presence of colonies. Individual colonies of 40 um or greater were examined.

Data set [3] relates to T47D cells. Nature of the data set: Cell morphology, T47D cells. The data set is classed as cell-based, human. To be noted: varying concentrations, 24 hours. The protocol:
Cell Morphology: T47D cells (1000 cells/ml) were seeded in a six-well plate for 24 hours. Next day, cells were dosed with varying concentrations of PQ1 for 24 hours. Cells were observed under a microscope before and after the experiment. No effect seen on the morphology of cells in the presence of PQ1.

The test system of data set [4] is T47D cells. Nature of the data set: Gap junction activity (GJIC), flow cytometry of dye coupling, T47D cells. It is filed as cell-based, human. The protocol: FIG. 4(A) MDA-MB-453 and (B) T47D cells were treated with low (500 nM) and high (10 μM) concentrations of PQs for 24 hours. Monolayers of acceptor cell population were grown on 25-cm flasks in the presence of Vibrant DiD. Vybrant DiD in acceptor cells is not able to pass through the gap junctions because of its hydrophobic property. Single cell suspensions of donor treated cells were prepared, labeled with 0.05 μg/ml calcein-AM, incubated at 37 C for 5 minutes. Quantification of dye coupling between the donor and acceptor cells was assessed by dual-excitation flow cytometry. […] Cells treated with 10 μM PQ3 have approximately 40-50% decrease in gap junction activity compared control or DMSO.
(Flow cytometry measures light scatter and fluorescence of single cells or particles in a stream.)

“Also recorded” adds a separate entry of the source.

1 compound from patent US8809368B2, “Compounds affecting gap junction activity” (Kansas State University Research Foundation, priority 2006, dated 2014) can be followed below.

For the compound `COc1cc(NCCCN)c2nccc(C)c2c1Oc1cccc(C(F)(F)F)c1.O=C(O)CCC(=O)O` [PQ1, 6-Methoxy-8-[(3-aminopropyl)amino]-4-methyl-5-(3-trifluoromethylphenyloxy) quinoline succinic acid], the cell proliferation result in data set [1] is “no effect”. For the same compound, the “mitochondria by electron microscopy” value with T47D cells [2] is listed as “Mitochondrial damage”. Also, the HIF1α stabilization entry in the data set with HIF1α is “did not cause activation or stabilization; also recorded: did not have any effect”. For the same compound, the colony growth result is “completely inhibits” in the data set with SW620 colon cancer cells (10 uM) and “no effect” in the data set on SW620 colon cancer cells (1-100 nM). Moreover, the cell morphology entry with T47D cells [3] is on record as “No effect”. Moreover, the “increase in GJIC” value in the data set on T47D cells [4] (FIG. 4, 24 hours) was 20-50%. Moreover, in the data set with T47D cells [4] (Table 1, 500 nM), the “effect on gap junction intercellular communication” value is “Increase”.
